Experimental data from US9833497B2, “Human originated EGF domain proteins and use of the same” (CHENGDU SOURCEBIO LIMITED-LIABILITY COMPANY, priority 2013, dated 2017).

Assays:
Assay type in all cases: cell-based
E. coli DH5α = test: Antibacterial activity: MIC and growth curve against E. coli DH5α in 96-well plate; conditions: minimal inhibitory concentration against E. coli DH5α; 96-well plate, 5×10^5 CFU/mL, 37° C., judged after 8 h
Summary of the method: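 MIC taken as lowest protein level with no bacterial growth, tracked by A600 every 30 min during 37 °C, 175 rpm culture. Two-fold protein series 50-12.5 μg/mL final, triplicate wells, against 5×10^5 CFU/mL of LB-washed mid-log cells.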

E. coli BL21 = test: MIC against Gram-negative bacteria: E. coli BL21
Summary of the method: (§1)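 Purified recombinant human EGF domain proteins are tested by broth dilution in LB against a 5×10^5 CFU/mL inoculum, with two-fold serial dilutions run in triplicate. Plates are incubated at 37° C with shaking, and the MIC is read as the lowest protein concentration without growth.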

Pseudomonas aeruginosa = test: MIC against Gram-negative bacteria: Pseudomonas aeruginosa
Summary of the method: as §1

Klebsiella pneumonia = test: MIC against Gram-negative bacteria: Klebsiella pneumonia
Summary of the method: as §1

Enterobacter cloacae = test: MIC against Gram-negative bacteria: Enterobacter cloacae
Summary of the method: as §1

Aeromonas hydrophila = test: MIC against Gram-negative bacteria: Aeromonas hydrophila
Summary of the method: as §1

Citrobacter diversus = test: MIC against Gram-negative bacteria: Citrobacter diversus
Summary of the method: as §1

Moraxella catarrhalis = test: MIC against Gram-negative bacteria: Moraxella catarrhalis
Summary of the method: as §1

Proteus mirabilis = test: MIC against Gram-negative bacteria: Proteus mirabilis
Summary of the method: as §1

Proteus vulgaris = test: MIC against Gram-negative bacteria: Proteus vulgaris
Summary of the method: as §1

Serratia marcescens = test: MIC against Gram-negative bacteria: Serratia marcescens
Summary of the method: as §1

[1] = 10 h cultivation at 37° C., 5×10^5 CFU/mL, two-fold serial dilution
[2] = 96-well plate, 5×10^5 CFU/mL, 37° C., 10 h

PRT1005 (LMDLCAQKPCPRNSHCLQTGPSFHCLCLQGWTGPLCN; listed as Homo sapiens)
MIC (E. coli DH5α): 50 µg/mL | MIC (E. coli BL21; E. coli BL21, 10 h cultivation at 37° C.): 12.5 µg/mL | MIC (Pseudomonas aeruginosa; P. aeruginosa, 10 h cultivation at 37° C.): 50 µg/mL | MIC (Klebsiella pneumonia; K. pneumonia, 10 h cultivation at 37° C.): 12.5 µg/mL | MIC (Enterobacter cloacae; E. cloacae, 10 h cultivation at 37° C.): 25 µg/mL | MIC (Aeromonas hydrophila; A. hydrophila, 10 h cultivation at 37° C.): 50 µg/mL | MIC (Citrobacter diversus; C. diversus, 10 h cultivation at 37° C.): 25 µg/mL | MIC (Moraxella catarrhalis; M. catarrhalis, 10 h cultivation at 37° C.): 12.5 µg/mL | MIC (Proteus mirabilis; P. mirabilis, 10 h cultivation at 37° C.): 25 µg/mL | MIC (Proteus vulgaris; P. vulgaris, 10 h cultivation at 37° C.): 50 µg/mL | MIC (Serratia marcescens; S. marcescens, 10 h cultivation at 37° C.): 25 µg/mL

PRT1158 (IQTSCESFPLRNNATCKKCEKDYPCSCISGFTEKNCE; listed as Homo sapiens)
MIC (E. coli DH5α): 25 µg/mL | MIC E. coli BL21 (E. coli BL21; [1]): 12.5 µg/mL | MIC P. aeruginosa (Pseudomonas aeruginosa; [1]): 25 µg/mL | MIC K. pneumonia (Klebsiella pneumonia; [1]): 50 µg/mL | MIC E. cloacae (Enterobacter cloacae; [1]): 12.5 µg/mL | MIC A. hydrophila (Aeromonas hydrophila; [1]): 50 µg/mL | MIC C. diversus (Citrobacter diversus; [1]): 12.5 µg/mL | MIC M. catarrhalis (Moraxella catarrhalis; [1]): 50 µg/mL | MIC P. mirabilis (Proteus mirabilis; [1]): 12.5 µg/mL | MIC P. vulgaris (Proteus vulgaris; [1]): 50 µg/mL | MIC S. marcescens (Serratia marcescens; [1]): 25 µg/mL

PRT39 (PVRDCSRNNGGCTRNFKCVSDRQVDSSGCVCPEELKPMKDGSGCY; listed as Homo sapiens)
MIC (E. coli DH5α): 50 µg/mL | MIC (μg/mL) E. coli BL21 (E. coli BL21; E. coli BL21, 96-well plate, 5×10^5 CFU/mL, 37° C., 10 h): 25 µg/mL | MIC (μg/mL) P. aeruginosa (Pseudomonas aeruginosa; Pseudomonas aeruginosa, 96-well plate, 5×10^5 CFU/mL, 37° C., 10 h): 50 µg/mL | MIC (μg/mL) K. pneumonia (Klebsiella pneumonia; Klebsiella pneumonia, 96-well plate, 5×10^5 CFU/mL, 37° C., 10 h): 50 µg/mL | MIC (μg/mL) E. cloacae (Enterobacter cloacae; Enterobacter cloacae, 96-well plate, 5×10^5 CFU/mL, 37° C., 10 h): 25 µg/mL | MIC (μg/mL) A. hydrophila (Aeromonas hydrophila; Aeromonas hydrophila, 96-well plate, 5×10^5 CFU/mL, 37° C., 10 h): 50 µg/mL | MIC (μg/mL) C. diversus (Citrobacter diversus; Citrobacter diversus, 96-well plate, 5×10^5 CFU/mL, 37° C., 10 h): 50 µg/mL | MIC (μg/mL) M. catarrhalis (Moraxella catarrhalis; Moraxella catarrhalis, 96-well plate, 5×10^5 CFU/mL, 37° C., 10 h): 12.5 µg/mL | MIC (μg/mL) P. mirabilis (Proteus mirabilis; Proteus mirabilis, 96-well plate, 5×10^5 CFU/mL, 37° C., 10 h): 25 µg/mL | MIC (μg/mL) P. vulgaris (Proteus vulgaris; Proteus vulgaris, 96-well plate, 5×10^5 CFU/mL, 37° C., 10 h): 12.5 µg/mL | MIC (μg/mL) S. marcescens (Serratia marcescens; Serratia marcescens, 96-well plate, 5×10^5 CFU/mL, 37° C., 10 h): 12.5 µg/mL

PRT1417 (RACHPRCAEHGTCRDGKCECSPGWNGEHCT; listed as Homo sapiens)
MIC (E. coli DH5α): 25 µg/mL | MIC against E. coli BL21 (E. coli BL21; E. coli BL21, 5×10^5 CFU/mL, 10 h cultivation at 37° C.): 12.5 µg/mL | MIC against P. aeruginosa (Pseudomonas aeruginosa; Pseudomonas aeruginosa, 5×10^5 CFU/mL, 10 h cultivation at 37° C.): 12.5 µg/mL | MIC against K. pneumonia (Klebsiella pneumonia; Klebsiella pneumonia, 5×10^5 CFU/mL, 10 h cultivation at 37° C.): 50 µg/mL | MIC against E. cloacae (Enterobacter cloacae; Enterobacter cloacae, 5×10^5 CFU/mL, 10 h cultivation at 37° C.): 12.5 µg/mL | MIC against A. hydrophila (Aeromonas hydrophila; Aeromonas hydrophila, 5×10^5 CFU/mL, 10 h cultivation at 37° C.): 50 µg/mL | MIC against C. diversus (Citrobacter diversus; Citrobacter diversus, 5×10^5 CFU/mL, 10 h cultivation at 37° C.): 25 µg/mL | MIC against M. catarrhalis (Moraxella catarrhalis; Moraxella catarrhalis, 5×10^5 CFU/mL, 10 h cultivation at 37° C.): 12.5 µg/mL | MIC against P. mirabilis (Proteus mirabilis; Proteus mirabilis, 5×10^5 CFU/mL, 10 h cultivation at 37° C.): 25 µg/mL | MIC against P. vulgaris (Proteus vulgaris; Proteus vulgaris, 5×10^5 CFU/mL, 10 h cultivation at 37° C.): 50 µg/mL | MIC against S. marcescens (Serratia marcescens; Serratia marcescens, 5×10^5 CFU/mL, 10 h cultivation at 37° C.): 25 µg/mL

PRT1107 (LMPLCWSKPCHNNATCEDSVDNYTCHCWPGYTGAQCE; listed as Homo sapiens)
MIC (E. coli DH5α): 12.5 µg/mL | MIC E. coli BL21 (E. coli BL21; [1]): 50 µg/mL | MIC P. aeruginosa (Pseudomonas aeruginosa; [1]): 12.5 µg/mL | MIC K. pneumonia (Klebsiella pneumonia; [1]): 50 µg/mL | MIC E. cloacae (Enterobacter cloacae; [1]): 25 µg/mL | MIC A. hydrophila (Aeromonas hydrophila; [1]): 12.5 µg/mL | MIC C. diversus (Citrobacter diversus; [1]): 50 µg/mL | MIC M. catarrhalis (Moraxella catarrhalis; [1]): 12.5 µg/mL | MIC P. mirabilis (Proteus mirabilis; [1]): 50 µg/mL | MIC P. vulgaris (Proteus vulgaris; [1]): 12.5 µg/mL | MIC S. marcescens (Serratia marcescens; [1]): 25 µg/mL

PRT710 (DQDECAVYGTCSQTCRNTHGSYTCSCVEGYLMQPDNRSCK; listed as Homo sapiens)
MIC (E. coli DH5α): 25 µg/mL | MIC E. coli BL21 (E. coli BL21; [2]): 12.5 µg/mL | MIC P. aeruginosa (Pseudomonas aeruginosa; [2]): 50 µg/mL | MIC K. pneumonia (Klebsiella pneumonia; [2]): 12.5 µg/mL | MIC E. cloacae (Enterobacter cloacae; [2]): 50 µg/mL | MIC A. hydrophila (Aeromonas hydrophila; [2]): 12.5 µg/mL | MIC C. diversus (Citrobacter diversus; [2]): 50 µg/mL | MIC M. catarrhalis (Moraxella catarrhalis; [2]): 25 µg/mL | MIC P. mirabilis (Proteus mirabilis; [2]): 12.5 µg/mL | MIC P. vulgaris (Proteus vulgaris; [2]): 25 µg/mL | MIC S. marcescens (Serratia marcescens; [2]): 50 µg/mL
